Patent US20170096492A1, “DOSAGE AND ADMINISTRATION OF ANTI-IGF-1R, ANTI-ErbB3 BISPECIFIC ANTIBODIES, USES THEREOF AND METHODS OF TREATMENT [sequence]” (Merrimack Pharmaceuticals, Inc., priority 2014, published 2017)
Entries after “also recorded” stand apart in the source; their conditions may differ.

Legend:
CAKI-1 xenografts = assay: CAKI-1 xenograft PD, western blot; assay type: in vivo, mice
Experimental: For the PD study results shown in FIGS. 3A-B and FIGS. 5A-C, NOD/SCID female mice were inoculated with 12×10^6 CAKI-1 or 10×10^6 SK-ES-1 cells, respectively, in 1:1 Matrigel® suspension. […] Tumors were harvested 24 hours after the second dose of drug; lysates were generated and subjected to western blot analysis.

[1] = tested on: BxPC-3 pancreatic cancer cells; assay: CTG cell viability, paclitaxel with IGF-1 or HRG, three-dimensional cultures; assay type: cell-based, human
Experimental: (§1) The cell viability assay (FIGS. 7A-B and 8A-B) was carried out using a CellTiter-Glo® (CTG) assay (Promega), which determines the number of viable cells in a culture based on quantitation of the ATP present. In FIGS. 7A-B, BxPC-3 cells were grown in low serum alone or with exogenous IGF-1 or HRG added (0-50 nM). […] For the cell viability assays described in FIGS. 8(A-B), (FIG. 8A) BxPC-3 and (FIG. 8B) CFPAC-1 cells were cultured in low (2%) serum alone or with a combination of IGF-1 (50 nM) and HRG (10 nM).

[2] = tested on: BxPC-3 (KRAS wild type) pancreatic cancer cells; assay: CTG cell viability, gemcitabine or paclitaxel with IGF-1 and HRG, two-dimensional cultures; assay type: cell-based, human; conditions: IGF-1 50 nM and HRG 10 nM, 2% serum, MM-141 500 nM
Experimental: as §1

[3] = tested on: BxPC-3 cell line xenografts; assay: BxPC-3 xenograft efficacy study; assay type: in vivo, mice
Experimental: For the efficacy studies (FIGS. 6C and 9C), nu/nu female mice were inoculated with 8×10^6 DU145 cells and 5×10^6 BxPC-3 cells, respectively. […] Tumor volume was measured weekly as described in Example 4.

[4] = tested on: HepG2 hepatocellular carcinoma cells; assay: HepG2 western blot, sorafenib with or without MM-141; assay type: cell-based; conditions: MM-141 500 nM added to sorafenib 5 μM, 2 hours
Experimental: HepG2 cells were plated on 12 well dishes (3×10^5 cells per well) in 10% serum-containing media and incubated overnight. […] Following treatment, cells were harvested in lysis buffer containing protease and phosphatase inhibitors and analyzed by western blotting.

[5] = tested on: BxPC-3 (KRas wild-type) pancreatic cancer cells; assay: pAKT western blot, GSK-1120212 and MM-141; assay type: cell-based, human; conditions: 24 h
Experimental: Following treatment, cells were harvested in cell lysis buffer and western blotting was performed and quantified for pAKT (Serine 473).

BxPC-3 cells = assay: Cellular proliferation assay in low serum with or without IGF-1 or HRG; assay type: cell-based, human; conditions: for inhibition of cell growth: low (2%) serum
ovarian cancer cells = assay: Ovarian cancer cell western blot, AKT and ERK signaling; assay type: cell-based; conditions: MM-141 1 μM 1 hour, then IGF-1 50 nM or HRG 10 nM 10 minutes
Experimental: In FIGS. 18A-F, Peol, Peo4, Ov90, PEA1, PEA2 and OvCAR8 ovarian cancer cells were plated on 10 cm plates (1-3×10^6 cells per plate) in 10% serum-containing medium and incubated overnight. […] Following treatment, cells were harvested in lysis buffer containing protease and phosphatase inhibitors and analyzed by western blotting. Phosphorylated and total levels of IGF-1R, ErbB3, AKT and ERK were determined using target-specific antibodies.

[6] = tested on: ovarian cancer cell lines (PEA1, PEA2, OvCAR8); assay: Growth-factor-induced proliferation, 3D in vitro assays (CTG); assay type: cell-based
[7] = tested on: panel of pancreatic cancer cell lines; assay: pAKT ELISA after HRG and IGF-1 stimulation; assay type: cell-based, human; conditions: MM-141 500 nM 24 hours, HRG and IGF-1 100 ng/mL 15 minutes, ten cell lines
Experimental: Ten pancreatic cancer cell lines (see Table 3 above) were seeded at 65% confluence in 10% serum-containing medium and incubated in 96-well plates overnight. […] Following incubation, cells were treated with a combination of HRG and IGF-1 ligands at 100 ng/mL or PBS (control) for 15 minutes. After treatment, cells were harvested and protein lysates generated. Changes in pAKT levels across all treatments and cell lines were evaluated by pAKT ELISA. Phosphorylated AKT signal from untreated control was subtracted from each treatment, and then pAKT levels post-treatment with HRG and IGF-1 were normalized to 1 for each cell line.

[8] = tested on: CFPAC-1 pancreatic cancer cells; assay: CellTiter-Glo viability in three-dimensional nano-culture plates; assay type: cell-based, human
Experimental: CFPAC-1 pancreatic cancer cells were seeded in 10% serum-containing medium and incubated in 96-well three-dimensional nano-culture plates overnight. […] Cell viability was measured 96 hours post-treatment using CellTiter-Glo® (Promega).

[9] = tested on: CFPAC-1 pancreatic cancer cells; assay: pAKT (Ser473) ELISA after chemotherapy and ligand stimulation; assay type: cell-based, human; conditions: 24 hours
Experimental: CFPAC-1 pancreatic cancer cells were seeded at 65% confluence in 10% serum-containing medium on 96-well plates overnight. […] Following incubation, cells were treated with (FIG. 24A) HRG (5 nM) or (FIG. 24B) IGF-1 (50 nM) for 15 minutes, where indicated. After treatment, cells were harvested and protein lysates generated. Changes in pAKT (Ser473) levels across all treatments were evaluated by pAKT ELISA, respectively. FIGS. 24(A-B) are bar graphs showing pAKT levels relative to ligand alone stimulated signals, which were normalized to 1.
CFPAC-1 pancreatic cancer cells were seeded at 65% confluence in 10% serum-containing medium on 96-well plates overnight. […] Following incubation, cells were treated with (FIG. 25A) HRG (5 nM) or (FIG. 25B) IGF-1 (50 nM) for 15 minutes, where indicated. After treatment, cells were harvested and protein lysates generated. Changes in pAKT (Ser473) levels across all treatments were evaluated by pAKT ELISA, respectively. FIGS. 25(A-B) are bar graphs showing pAKT levels relative to ligand alone stimulated signals, which were normalized to 1.

[10] = single agent, MM-141 30 mpk i.p. or everolimus 10 mpk orally, 2 doses, tumors harvested 24 hours after second dose
[11] = MM-141 500 nM added to paclitaxel 50 nM

MM-141: polyvalent bispecific antibody P4-G1-M1.3, anti-IGF-1R and anti-ErbB3; heavy chain SEQ ID NO: 3, light chain SEQ ID NO: 4
everolimus-induced upregulation of IGF-1R and ErbB2 (resistance mechanism) (CAKI-1 xenografts; MM-141 30 mpk i.p. co-administered with everolimus 10 mpk orally): resistance mechanism was inhibited | total ErbB2 (CAKI-1 xenografts; [10]): down regulation | total IGF-1R (CAKI-1 xenografts; [10]): down regulation | sensitivity to cytotoxic properties of paclitaxel in a high IGF-1 setting [1, 11]: re-sensitize cells | sensitivity to cytotoxic properties of paclitaxel in the presence of high HRG [1, 11]: re-sensitize cells | resistance to cytotoxic effect of paclitaxel caused by IGF-1 or heregulin ([1]; paclitaxel 50 nM, IGF-1 or HRG 0-50 nM, MM-141 500 nM): resistance was reversed | resistance to cytotoxic effect of gemcitabine and paclitaxel caused by combination of IGF-1 and HRG [2]: resistance was reversed | tumor growth after development of resistance to gemcitabine ([3]; MM-141 30 mpk i.p. q3d added to the gemcitabine regimen on day 41): decreased tumor growth | activity of gemcitabine in the combination arm ([3]; MM-141 30 mpk i.p. q3d co-administered with gemcitabine 150 mpk i.p. q6d): increased the activity of gemcitabine | therapeutic synergy with gemcitabine ([3]; MM-141 30 mpk i.p. q3d with gemcitabine 150 mpk i.p. q6d): therapeutic synergy | sorafenib-induced up-regulation of ErbB3 and pAKT [4]: overcome | pAKT upregulation induced by the MEK inhibitor ([5]; MM-141 1000 nM with GSK-1120212 250 nM): decreases the pAKT upregulation | pAKT (Serine 473) level ([5]; single agent, GSK-1120212 250 nM or MM-141 1000 nM): down-regulates the basal level of pAKT | inhibition of cell growth, greater than in the absence of ligand (BxPC-3 cells; in presence of HRG): approximately 50% | inhibition of cell growth (BxPC-3 cells; IGF-1 added to the media): maximal activity | inhibition of cell growth (BxPC-3 cells; absence of exogenous ligand): unable to inhibit cell growth | IGF-1 and/or HRG induced upregulation in AKT and ERK survival signaling (ovarian cancer cells): could be abrogated | IGF-1 and HRG growth-factor-induced proliferation [6]: blocks | pAKT (AKT activation) induced by the combination of HRG and IGF-1 [7]: blocks AKT activation; also recorded: greatly reduced amount of pAKT | proliferation compared to cells incubated with ligands alone ([8]; MM-141 1000 nM in addition to HRG 10 nM and IGF-1 50 nM, with gemcitabine or paclitaxel): reduced proliferation | sensitivity to gemcitabine in cells stimulated with HRG and IGF-1 ([8]; gemcitabine 2 nM, HRG 10 nM, IGF-1 50 nM, MM-141 1000 nM, 96 hours): restores sensitivity | sensitivity to paclitaxel in cells stimulated with HRG and IGF-1 ([8]; paclitaxel 6 nM, HRG 10 nM, IGF-1 50 nM, MM-141 1000 nM, 96 hours): restores sensitivity | gemcitabine-induced increased sensitivity to HRG and IGF-1, pAKT (Ser473) ([9]; MM-141 500 nM with gemcitabine 1 μM): this effect is blocked | paclitaxel-induced increased sensitivity to IGF-1, pAKT (Ser473) ([9]; MM-141 500 nM with paclitaxel 100 nM): this effect is blocked
